The text below walks through data of patent publication US6399629B1, “Efflux pump inhibitors” (priority 1998, dated 2002).

Counter-ions that a name gives are not always drawn.

The subject of this test is Pseudomonas aeruginosa PAM1001. Nature of the test: microbe, parasite or virus in culture. To be noted: for inhibition at 2.5 µg/mL / inhibition at 5 µg/mL / inhibition at 10 µg/mL / inhibition at 20 µg/mL / inhibition at 40 µg/mL: Pseudomonas aeruginosa, PAM1001, read-out: Inhibition (%) of growth of P. aeruginosa PAM1001; for Inhibition (%) of growth of P. aeruginosa PAM1001: Levofloxacin 0.25 μg/mL. The test is classed as cell-based. The protocol:
For compounds labeled with the prefix ‘D’, potentiation is measured by inhibition of growth of Pseudomonas aeruginosa PAM1001 at varying concentrations of efflux pump inhibitors (EPIs) in the presence of levofloxacin (0.25 microg/mL). Bacteria are grown in Mueller Hinton Broth (MHB, Difco) with an initial inoculum of 1×10^6 CFU/mL. Kinetics of bacterial growth is monitored, during 18 h of incubation at 37° C., by measurement of the culture absorbance at 650 nm using a 96-well plate spectrophotometer (SpectraMax, Molecular Devices). The inhibitory effect of EPIs is expressed as a percentage of growth inhibition compared to a control bacterial culture grown in the presence of 0.25 microg/mL levofloxacin but without EPIs.

The mark [1] stands for this setting: Concentration of Compound 2.5 μg/mL.
The mark [2] stands for this setting: Concentration of Compound 5 μg/mL.
The mark [3] stands for this setting: Concentration of Compound 10 μg/mL.
The mark [4] stands for this setting: Concentration of Compound 20 μg/mL.
The mark [5] stands for this setting: Concentration of Compound 40 μg/mL.

The inhibition is the drop in the measured response relative to a control, in per cent. With `N[C@H]1CCN[C@H](C(=O)N2C[C@H](NC(=O)[C@H](O)CCc3ccccc3)C[C@H]2C(=O)Nc2cnc3ccccc3c2)C1` (mixture of isomers) [Compound D112, trans-4-Amino-L-Pipecolinoyl-trans-4-((R)-2-Hydroxy-4-Phenylbutyrylamino)-L-Proline 3-Quinolylamide Trihydrochloride], the inhibition at 2.5 µg/mL amounted to 20%, the inhibition at 5 µg/mL was 20%, the inhibition at 10 µg/mL was found to be 17% and the inhibition at 20 µg/mL is 58%. Also, the inhibition at 40 µg/mL came out at 101%.
`N[C@@H]1CCN[C@H](C(=O)N2C[C@H](NC(=O)[C@H](O)CCc3ccccc3)C[C@H]2C(=O)Nc2cnc3ccccc3c2)C1` (mixture of isomers) [Compound D113, cis-4-Amino-L-Pipecolinoyl-trans-4-((R)-2-Hydroxy-4-Phenylbutyrylamino)-L-Proline 3-Quinolylamide Trihydrochloride]: the inhibition at 2.5 µg/mL was determined as 20%, the inhibition at 5 µg/mL was found to be 32%, the inhibition at 10 µg/mL came to 15% and the inhibition at 20 µg/mL turned out to be 15%. For the same molecule, the inhibition at 40 µg/mL was 100%.
Take `NCC(=O)N[C@H]1CCN[C@H](C(=O)N2C[C@H](NC(=O)[C@H](O)CCc3ccccc3)C[C@H]2C(=O)Nc2cnc3ccccc3c2)C1` (mixture of isomers) [Compound D114, trans-4-Glycylamino-L-Pipecolinoyl-trans-4-((R)-2-Hydroxy-4-Phenylbutyrylamino)-L-Proline 3-Quinolylamide Trihydrochloride]: the inhibition at 2.5 µg/mL is 20%, the inhibition at 5 µg/mL came out at 22%, the inhibition at 10 µg/mL amounted to 90% and the inhibition at 20 µg/mL came to 100%. In addition, the inhibition at 40 µg/mL worked out at 100%.
Take `CNCC(=O)N[C@H]1CN[C@H](C(=O)N2C[C@H](NC(=O)[C@H](O)CCc3ccccc3)C[C@H]2C(=O)Nc2cnc3ccccc3c2)C1.Cl.Cl.Cl` (relative stereo) [Compound D106]: the “Inhibition (%) of growth of P. aeruginosa PAM1001” value under setting [1] is given as 19%; the “Inhibition (%) of growth of P. aeruginosa PAM1001” value under setting [2] is 19%; the “Inhibition (%) of growth of P. aeruginosa PAM1001” value under setting [3] is given as 20%; the “Inhibition (%) of growth of P. aeruginosa PAM1001” value under setting [4] turned out to be 19%; the “Inhibition (%) of growth of P. aeruginosa PAM1001” value under setting [5] was determined as 100%.
As for `Cl.Cl.Cl.NC[C@H](O)C(=O)N[C@H]1CN[C@H](C(=O)N2C[C@H](NC(=O)[C@H](O)CCc3ccccc3)C[C@H]2C(=O)Nc2cnc3ccccc3c2)C1` (relative stereo) [Compound D108, trans-4-((S)-3-Amino-2-Hydroxypropionylamino)-L-Prolyl-trans-4-((R)-2-Hydroxy-4-Phenylbutyrylamino)-L-Proline 3-Quinolylamide Trihydrochlonde], the “Inhibition (%) of growth of P. aeruginosa PAM1001” value under setting [1] was 23%; the “Inhibition (%) of growth of P. aeruginosa PAM1001” value under setting [2] is reported as 22%; the “Inhibition (%) of growth of P. aeruginosa PAM1001” value under setting [3] is 22%; the “Inhibition (%) of growth of P. aeruginosa PAM1001” value under setting [4] came out at 100%; the “Inhibition (%) of growth of P. aeruginosa PAM1001” value under setting [5] is listed as 101%.
As to `Cl.Cl.Cl.NCC(=O)N[C@@H]1CCN[C@H](C(=O)N2C[C@H](NC(=O)[C@H](O)CCc3ccccc3)C[C@H]2C(=O)Nc2cnc3ccccc3c2)C1` (relative stereo) [Compound D115, cis-4-Glycylamino-L-Pipecolinoyl-trans-4-((R)-2-Hydroxy-4-Phenylbutyrylamino)-L-Profine 3-Quinolylamide Trihydrochloride], the “Inhibition (%) of growth of P. aeruginosa PAM1001” value reads like this: under setting [1], 15%; under setting [2], 16%; under setting [3], 8%; under setting [4], 50%; under setting [5], 100%.
